{
  "source": "patent EP0888346B1",
  "about": "“CORALYNE ANALOGS AS TOPOISOMERASE INHIBITORS” (RUTGERS, THE STATE UNIVERSITY OF NEW JERSEY, priority 1996, dated 1997)",
  "key": {"[1]": {"test_system": "yeast cells expressing functional yeast topoisomerase I", "assay": "Yeast cytotoxicity assay, strain expressing wild-type yeast topo I", "type": "cell-based, S. cerevisiae", "details": "plates with 1 µM drug (camptothecin 0.5 µM), 3 days at 30°C", "text": "It has been established that yeast can survive when topoisomerase I function is obliterated, and that the topoisomerase I poisons only kill cells having a functional topoisomerase I (Bjornsti et al. Cancer Res. 49:6318-6323 (1989)).\nThe topoisomerase I-specific in vivo cytotoxicity assay was adapted from Knab et al. (Knab et al., J. Biol. Chem. 268:22322-22330 (1993)). In this system, various topo I genes cloned into the single copy yeast plasmid vector, YCpGAL1 (Knab et al., J. Biol. Chem. 268:22322-22330 (1993)), are expressed under the control of the GAL1 promoter in the JN2-134 strain of S. cerevisiae (MATa, rad52::LEU2, trp1, ade2-1,his7, ura3-52, isel, top1-1, leu2) (Bjornsti et al., Cancer Res. 49:6318-6323 (1989)). The topo I constructs in the vector are, respectively, the wild-type yeast topo I (YCpGAL-ScTOP1), a non-functional yeast topo I where the active site tyrosine-727 is mutated to a phenylalanine (YCpGAL1-Sctop1Y727F) (Knab et al., J. Biol. Chem. 268:22322-22330 (1993)), and the wild type human topoisomerase I (YCpGAL-hTOP1) (Bjornsti et al., Cancer Res. 49:6318-6323 (1989)). To qualitatively test the cytotoxicity and the topo I specificity of the drugs, yeast cells containing the specific plasmid were serially diluted (5-fold) and were grown in dropout medium supplemented with uracil and 2% galactose In addition, the plates contained: A: Control, no drug in the plate; B: Camptothecin (CPT), 0.5 µM; C: Coralyne, 1 µM; D: Methylenedioxy-dihydro-demethyl-coralyne (MDD-Coralyne), 1 µM, and E: Nitidine, 1 µM. The plates were grown for 3 days at 30°C to assess the lethal effect of the different compounds on the various topoisomerase I enzymes expressed in S. cerevisiae.and the drug being tested."}, "[2]": {"test_system": "Human lymphoblast RPMI 8402 cells", "assay": "MTT-microtiter plate tetrazolinium cytotoxicity assay (MTA)", "type": "cell-based", "details": "Homo sapiens, RPMI 8402, 96 h", "text": "The results were plotted and the IC50 then measured."}, "[3]": {"molecular_target": "T1, recombinant CPT-K5 topoisomerase I (Homo sapiens, UniProt P11387, D533G)", "T1 construct": "15 amino acid vector-derived fusion (pET-11a leader); made in house; host or cells: E. coli BL21(DE3)", "T1 sequence (P11387 1-765 D533G)": "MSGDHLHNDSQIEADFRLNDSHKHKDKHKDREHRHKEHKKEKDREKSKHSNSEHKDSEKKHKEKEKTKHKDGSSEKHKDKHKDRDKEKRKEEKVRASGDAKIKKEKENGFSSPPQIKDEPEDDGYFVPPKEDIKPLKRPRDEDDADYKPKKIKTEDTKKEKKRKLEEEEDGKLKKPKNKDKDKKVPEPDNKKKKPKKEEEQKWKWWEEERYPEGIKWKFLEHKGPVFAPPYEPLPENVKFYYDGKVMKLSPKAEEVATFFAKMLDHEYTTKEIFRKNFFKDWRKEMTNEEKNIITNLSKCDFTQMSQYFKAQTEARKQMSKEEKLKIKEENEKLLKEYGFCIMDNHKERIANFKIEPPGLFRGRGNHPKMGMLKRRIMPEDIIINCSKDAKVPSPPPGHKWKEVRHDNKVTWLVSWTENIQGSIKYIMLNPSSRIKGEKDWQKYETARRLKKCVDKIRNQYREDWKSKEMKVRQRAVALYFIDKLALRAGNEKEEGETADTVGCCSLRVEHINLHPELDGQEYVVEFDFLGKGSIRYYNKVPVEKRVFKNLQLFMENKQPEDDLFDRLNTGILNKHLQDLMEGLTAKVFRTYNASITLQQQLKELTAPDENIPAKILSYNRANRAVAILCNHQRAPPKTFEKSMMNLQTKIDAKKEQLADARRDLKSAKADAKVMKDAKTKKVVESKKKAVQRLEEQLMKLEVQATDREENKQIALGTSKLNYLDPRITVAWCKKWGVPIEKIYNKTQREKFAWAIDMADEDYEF", "assay": "Cleavage assay with camptothecin-resistant mutant topo I", "type": "biochemical", "details": "relative to wildtype human topoisomerase I", "experimental": "Cleavage assays for the recombinant topoisomerases I and calf thymus topoisomerases I and II were done as described (Liu et al., J. Biol. Chem. 258:15365-15370 (1983)). The plasmid YEpG DNA used for the cleavage assays was prepared and labeled at its 3'-end using the published procedures."}},
  "note": "Like-named read-outs stand apart in the source and are kept apart here.",
  "data": [
    {"molecule": "CC[C@@]1(O)C(=O)OCc2c1cc1n(c2=O)Cc2cc3ccccc3nc2-1", "note": "[CPT, camptothecin, reference compound]", "values": [
      {"measurement": "cytotoxicity against yeast cells expressing functional yeast topoisomerase I (in words)", "setting": "[1]", "result": "quite sensitive"},
      {"measurement": "IC50", "setting": "[2]; read-out: Cytotoxicity IC50 RPMI", "result": 4, "unit": "nM"},
      {"measurement": "IC50", "setting": "[2]; read-out: Cytotoxicity RPMI 8402", "result": 3, "unit": "ng/mL"},
      {"measurement": "resistance of recombinant CPT-K5 topoisomerase I to the drug", "setting": "[3]", "result": "over 1000 fold"}
    ]}
  ]
}
